Laboratory results reported in patent US20140308733A1, “METHOD FOR INDUCING GERMINATION OF SPORE FORMING BACTERIUM” (CALPIS CO., LTD., priority 2011, published 2014).

Key:
Format in all cases: cell-based
[1] = system: Geobacillus stearothermophilus (NBRC 13737); assay: Germination induction, change of turbidity (630 nm) of spore suspension; conditions: 300 ppm, 37° C., 150 rpm
Method: (§1) It is possible to determine whether spores have germinated, after measuring an OD 630 value (turbidity at 630 nm) of the liquid culture, based on decrease in the value (Literature: Microbiology, (1950), 4, 3, 330-338). Briefly, bacterial cells after culturing are washed with distilled water and diluted with distilled water to OD 630=1.0, which is then mixed with an equal volume of a germination induction solution, and the turbidity at 630 nm is measured by a UV spectrophotometer at room temperature.
(§2) TS culture media (Difco, Trypticase Soy Broth) were inoculated respectively with 11 strains listed in Table 1 and cultured at 50° C. with respect to Geobacillus stearothermophilus NBRC13737 and Aeribacillus pallidus TK6004 (FERM BP-08597), and at 37° C. with respect to the other 9 strains, until respective colonies were established. Then with respect to each of 11 strains, a loop full of a single colony was scratched by a platinum loop and suspended in 500 μL of sterilized water. In 1000 g of water was dissolved 8.0 g of a nutrient agar culture medium (Difco, Nutrient Broth), followed by high pressure steam sterilization (121° C., 15 min) to prepare a plate medium. The nutrient agar culture medium was smeared with each 100 μL of the suspension and cultured at 37° C. for 3 days.
(§3) Then, bacterial cells were suspended using a platinum loop in 500 μL of sterilized water, and the bacterial suspension was subjected to a heat shock at 65° C. for 35 min. Each 100 μL of the heat-shocked bacterial suspension and a not-heat-shocked bacterial suspension were smeared on the TS culture media respectively and cultured at 50° C. or 37° C. for 1 day. As the results of the cultures, colony formation was confirmed also with respect to the heat-shocked bacterial suspensions, to confirm that spores were formed for all of 11 strains. Further, since the bacteria were not stained by Gram staining, it was reconfirmed that spores were formed.
(§4) After confirming the spore formation, the bacterial cells were collected by a bacteria spreader, suspended in 10 mL of sterilized distilled water, and then centrifuged (8340×g, 4° C., 15 min). The supernatant was removed and thereafter the bacterial cells were washed twice with 10 mL of sterilized water. After washing, the bacterial cells were suspended in 5 mL of sterilized water, and the suspension was filtrated by sterilized Kimwipes. The filtrate was centrifuged (8340×g, 4° C., 15 min) to remove the supernatant, and the rest was adjusted to the turbidity (at 630 nm) of 1.0 with sterilized water.
(§5) After dissolving with stirring using a stirring rod with a propeller, filtration sterilization (0.45 μm filter) was conducted to prepare each 600 ppm-solution.
(§6) Five hundred (500) μL of each solution and 500 μL of each bacterial spore suspension were mixed. […] Defining the time point of mixing as the reaction initiation (0 min), and continuing shaking (150 rpm) at 37° C., the turbidity (630 nm) was measured at 10, 20, 30, 40, 50, 60, 90, 120, and 180 min after the reaction initiation.
(§7) Since the turbidity at 630 nm decreases by germination of spores, it has been known that the turbidity at 630 nm can be used to determine the germination rate.

[2] = system: Bacillus amyloliquefaciens (NBRC 3032); assay: as above; conditions: 300 ppm, 37° C., 150 rpm
Method: as §1, §2, §3, §4, §5, §6, §7

[3] = system: Bacillus coagulans (NBRC 12583); assay: as above; conditions: 300 ppm, 37° C., 150 rpm
Method: as §1, §2, §3, §4, §5, §6, §7

[4] = system: Bacillus subtilis sp spizizenii (NBRC 101239); assay: as above; conditions: 300 ppm, 37° C., 150 rpm
Method: as §1, §2, §3, §4, §5, §6, §7

[5] = system: Aeribacillus pallidus TK6004 (FERM BP-08597); assay: as above; conditions: 300 ppm, 37° C., 150 rpm
Method: as §1, §2, §3, §4, §5, §6, §7

[6] = system: Bacillus amyloliquefaciens (NBRC 3022); assay: as above; conditions: 300 ppm, 37° C., 150 rpm
Method: as §1, §2, §3, §4, §5, §6, §7

[7] = system: Bacillus coagulans (NBRC 3887); assay: as above; conditions: 300 ppm, 37° C., 150 rpm
Method: as §1, §2, §3, §4, §5, §6, §7

[8] = system: Bacillus subtilis C-3102 (FERM BP-1096); assay: as above; conditions: 300 ppm, 37° C., 150 rpm
Method: as §1, §2, §3, §4, §5, §6, §7

[9] = system: Bacillus licheniformis (NBRC 12195); assay: as above; conditions: 300 ppm, 37° C., 150 rpm
Method: as §1, §2, §3, §4, §5, §6, §7

[10] = system: Bacillus licheniformis (NBRC 14206); assay: as above; conditions: 300 ppm, 37° C., 150 rpm
Method: as §1, §2
Then, bacterial cells were suspended using a platinum loop in 500 μL of sterilized water, and the bacterial suspension was subjected to a heat shock at 65° C. for 35 min. Each 100 μL of the heat-shocked bacterial suspension and a not-heat-shocked bacterial suspension were smeared on the TS culture media respectively and cultured at 50° C. or 37° C. for 1 day.
as §4, §5, §6, §7

[11] = system: Bacillus subtilis C-3102 (FERM BP-1096); assay: Germination induction by ferulic acid, vanillic acid or p-coumaric acid at 300 ppm, turbidity change (Example 3); conditions: for turbidity (630 nm): 37° C., 150 rpm
Method: In each 500 mL of distilled water heated to 70° C. was added 0.3 g of ferulic acid, vanillic acid, or p-coumaric acid. After dissolving with stirring using a stirring rod with a propeller, filtration sterilization (0.45 μm filter) was conducted to prepare each 600 ppm-solution.
Next, 500 μL aliquots of bacterial suspension of Bacillus subtilis C-3102 (FERM BP-1096) prepared by a similar method as in Example 1 were mixed with 500 μL of each of the ferulic acid, vanillic acid, and p-coumaric acid solutions, and the mixtures were adjusted to 300 ppm of ferulic acid, vanillic acid, or p-coumaric acid concentration. Defining the time point of mixing as the reaction initiation (0 min), and continuing shaking (150 rpm) at 37° C., the turbidity (630 nm) was measured at 10, 20, 30, 40, 50, 60, 90, 120, and 180 min after the reaction initiation.

[12] = 0 min after reaction initiation
[13] = 10 min after reaction initiation
[14] = 20 min after reaction initiation
[15] = 30 min after reaction initiation
[16] = 40 min after reaction initiation
[17] = 50 min after reaction initiation
[18] = 60 min after reaction initiation
[19] = 90 min after reaction initiation
[20] = 120 min after reaction initiation
[21] = 180 min after reaction initiation

C[C@H](N)C(=O)O [L-Ala, L-alanine, reference compound]
turbidity (630 nm) [1, 12]: 0.577
turbidity (630 nm) [1, 13]: 0.573
turbidity (630 nm) [1, 14]: 0.566
turbidity (630 nm) [1, 15]: 0.565
turbidity (630 nm) [1, 16]: 0.568
turbidity (630 nm) [1, 17]: 0.561
turbidity (630 nm) [1, 18]: 0.568
turbidity (630 nm) [1, 19]: 0.565
turbidity (630 nm) [1, 20]: 0.553
turbidity (630 nm) [1, 21]: 0.538
turbidity (630 nm) [2, 12]: 0.517
turbidity (630 nm) [2, 13]: 0.418
turbidity (630 nm) [2, 14]: 0.362
turbidity (630 nm) [2, 15]: 0.347
turbidity (630 nm) [2, 16]: 0.333
turbidity (630 nm) [2, 17]: 0.315
turbidity (630 nm) [2, 18]: 0.32
turbidity (630 nm) [2, 19]: 0.298
turbidity (630 nm) [2, 20]: 0.290
turbidity (630 nm) [2, 21]: 0.274
turbidity (630 nm) [3, 12]: 0.564
turbidity (630 nm) [3, 13]: 0.559
turbidity (630 nm) [3, 14]: 0.545
turbidity (630 nm) [3, 15]: 0.515
turbidity (630 nm) [3, 16]: 0.502
turbidity (630 nm) [3, 17]: 0.498
turbidity (630 nm) [3, 18]: 0.510
turbidity (630 nm) [3, 19]: 0.510
turbidity (630 nm) [3, 20]: 0.507
turbidity (630 nm) [3, 21]: 0.491
turbidity (630 nm) [4, 12]: 0.527
turbidity (630 nm) [4, 13]: 0.520
turbidity (630 nm) [4, 14]: 0.514
turbidity (630 nm) [4, 15]: 0.501
turbidity (630 nm) [4, 16]: 0.488
turbidity (630 nm) [4, 17]: 0.475
turbidity (630 nm) [4, 18]: 0.455
turbidity (630 nm) [4, 19]: 0.409
turbidity (630 nm) [4, 20]: 0.387
turbidity (630 nm) [4, 21]: 0.366
turbidity (630 nm) [5, 12]: 0.488
turbidity (630 nm) [5, 13]: 0.470
turbidity (630 nm) [5, 14]: 0.463
turbidity (630 nm) [5, 15]: 0.457
turbidity (630 nm) [5, 16]: 0.451
turbidity (630 nm) [5, 17]: 0.445
turbidity (630 nm) [5, 18]: 0.441
turbidity (630 nm) [5, 19]: 0.416
turbidity (630 nm) [5, 20]: 0.404
turbidity (630 nm) [5, 21]: 0.370
turbidity (630 nm) [6, 12]: 0.565
turbidity (630 nm) [6, 13]: 0.505
turbidity (630 nm) [6, 14]: 0.506
turbidity (630 nm) [6, 15]: 0.461
turbidity (630 nm) [6, 16]: 0.495
turbidity (630 nm) [6, 17]: 0.504
turbidity (630 nm) [6, 18]: 0.506
turbidity (630 nm) [6, 19]: 0.490
turbidity (630 nm) [6, 20]: 0.505
turbidity (630 nm) [6, 21]: 0.493
turbidity (630 nm) [7, 12]: 0.510
turbidity (630 nm) [7, 13]: 0.508
turbidity (630 nm) [7, 14]: 0.470
turbidity (630 nm) [7, 15]: 0.515
turbidity (630 nm) [7, 16]: 0.488
turbidity (630 nm) [7, 17]: 0.500
turbidity (630 nm) [7, 18]: 0.500
turbidity (630 nm) [7, 19]: 0.472
turbidity (630 nm) [7, 20]: 0.500
turbidity (630 nm) [7, 21]: 0.490
turbidity (630 nm) [8, 12]: 0.606
turbidity (630 nm) [8, 13]: 0.607
turbidity (630 nm) [8, 14]: 0.597
turbidity (630 nm) [8, 15]: 0.597
turbidity (630 nm) [8, 16]: 0.594
turbidity (630 nm) [8, 17]: 0.590
turbidity (630 nm) [8, 18]: 0.582
turbidity (630 nm) [8, 19]: 0.584
turbidity (630 nm) [8, 20]: 0.574
turbidity (630 nm) [8, 21]: 0.578
turbidity (630 nm) [9, 12]: 0.534
turbidity (630 nm) [9, 13]: 0.526
turbidity (630 nm) [9, 14]: 0.517
turbidity (630 nm) [9, 15]: 0.510
turbidity (630 nm) [9, 16]: 0.508
turbidity (630 nm) [9, 17]: 0.503
turbidity (630 nm) [9, 18]: 0.503
turbidity (630 nm) [9, 19]: 0.493
turbidity (630 nm) [9, 20]: 0.492
turbidity (630 nm) [9, 21]: 0.498
turbidity (630 nm) [10, 14]: 0.535
turbidity (630 nm) [10, 15]: 0.502
turbidity (630 nm) [10, 16]: 0.490
turbidity (630 nm) [10, 17]: 0.482
turbidity (630 nm) [10, 18]: 0.477
turbidity (630 nm) [10, 19]: 0.470
turbidity (630 nm) [10, 20]: 0.465
turbidity (630 nm) [10, 21]: 0.468

O=C(O)/C=C/c1ccc(O)cc1 [p-Coumaric acid, p-coumaric acid]
germination confirmed by turbidity decrease [11]: decreased, thereby to confirm germination
turbidity (630 nm) [11, 12]: 0.545
turbidity (630 nm) [11, 13]: 0.523
turbidity (630 nm) [11, 14]: 0.506
turbidity (630 nm) [11, 15]: 0.488
turbidity (630 nm) [11, 16]: 0.475
turbidity (630 nm) [11, 17]: 0.460
turbidity (630 nm) [11, 18]: 0.420
turbidity (630 nm) [11, 19]: 0.392
turbidity (630 nm) [11, 20]: 0.360
turbidity (630 nm) [11, 21]: 0.319
